Experimental data published in ChEMBL document CHEMBL3608254, “Discovery of novel triazolobenzazepinones as γ-secretase modulators with central Aβ42 lowering in rodents and rhesus monkeys” (Bioorg Med Chem Lett, 2015).
pIC50: −log10 of the molar value. Activity calls are given as the source filed them. The rule behind the calls is not given here.

Experiments:
[1] = Inhibition of gamma-secretase-mediated cleavage of NotchdeltaE in human HeLa cells expressing NotchdeltaE assessed as intracellular release of Notch intracellular domain (NICD)/N-terminal luciferase by luminescent method; type: cell-based
[2] = target: Gamma-secretase; assay: Inhibition of gamma-secretase in human SH-SY5Y cells expressing beta-APP C-terminal fragment SPA4CT assessed as decrease of amyloid beta-40 level by electrochemiluminescent method; type: cell-based
[3] = target: Gamma-secretase; assay: Inhibition of gamma-secretase in human SH-SY5Y cells expressing beta-APP C-terminal fragment SPA4CT assessed as decrease of amyloid beta-42 level by electrochemiluminescent method; type: cell-based
[4] = target: Sodium-dependent serotonin transporter (Homo sapiens, UniProt P31645); assay: Inhibition of SERT (unknown origin)
[5] = system: Mus musculus; assay: Antialzheimer's disease activity in po dosed APP-YAC transgenic mouse assessed as reduction of amyloid beta-40/42 level in brain measured after 6 hrs; type: functional
[6] = system: Rattus norvegicus; assay: Antialzheimer's disease activity in po dosed Sprague-Dawley rat assessed as reduction of amyloid beta-40/42 level in brain measured after 6 hrs; type: functional
[7] = target: Voltage-gated inwardly rectifying potassium channel KCNH2 (Homo sapiens, UniProt Q12809)
Chain of Voltage-gated inwardly rectifying potassium channel KCNH2 (Q12809 whole entry): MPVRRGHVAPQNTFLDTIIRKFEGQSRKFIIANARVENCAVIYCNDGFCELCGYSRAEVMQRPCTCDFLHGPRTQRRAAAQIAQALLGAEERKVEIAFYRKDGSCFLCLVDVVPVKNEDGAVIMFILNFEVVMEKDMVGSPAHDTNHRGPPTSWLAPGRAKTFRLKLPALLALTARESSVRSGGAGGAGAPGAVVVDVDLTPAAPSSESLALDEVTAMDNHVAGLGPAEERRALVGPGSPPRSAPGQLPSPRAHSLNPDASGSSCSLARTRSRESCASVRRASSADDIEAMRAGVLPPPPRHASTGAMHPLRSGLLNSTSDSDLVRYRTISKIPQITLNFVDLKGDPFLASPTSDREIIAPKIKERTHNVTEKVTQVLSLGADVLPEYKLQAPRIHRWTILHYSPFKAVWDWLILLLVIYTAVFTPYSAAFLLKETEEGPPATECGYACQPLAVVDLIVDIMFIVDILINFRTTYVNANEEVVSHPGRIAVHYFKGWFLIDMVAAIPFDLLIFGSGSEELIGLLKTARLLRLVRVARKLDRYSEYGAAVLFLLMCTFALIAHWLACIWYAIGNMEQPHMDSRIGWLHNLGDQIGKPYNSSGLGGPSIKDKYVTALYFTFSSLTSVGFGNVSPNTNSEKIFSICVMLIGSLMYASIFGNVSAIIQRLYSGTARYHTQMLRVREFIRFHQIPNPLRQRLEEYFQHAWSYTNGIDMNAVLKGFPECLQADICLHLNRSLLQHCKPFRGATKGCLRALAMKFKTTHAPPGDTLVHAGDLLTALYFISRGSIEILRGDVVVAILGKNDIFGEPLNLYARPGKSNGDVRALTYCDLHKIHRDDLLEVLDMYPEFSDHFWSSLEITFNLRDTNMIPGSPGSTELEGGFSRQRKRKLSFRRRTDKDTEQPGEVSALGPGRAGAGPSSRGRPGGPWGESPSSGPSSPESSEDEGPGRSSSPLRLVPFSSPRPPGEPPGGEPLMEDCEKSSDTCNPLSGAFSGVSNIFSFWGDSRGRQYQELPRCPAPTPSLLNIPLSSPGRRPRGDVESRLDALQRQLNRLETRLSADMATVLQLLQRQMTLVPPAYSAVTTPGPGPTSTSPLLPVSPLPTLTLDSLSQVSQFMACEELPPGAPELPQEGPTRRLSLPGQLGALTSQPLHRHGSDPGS
Description: Binding affinity to human ERG expressed in HEK cells by MK-499 radioligand displacement assay

Chain of Sodium-dependent serotonin transporter (P31645 whole entry, looked up): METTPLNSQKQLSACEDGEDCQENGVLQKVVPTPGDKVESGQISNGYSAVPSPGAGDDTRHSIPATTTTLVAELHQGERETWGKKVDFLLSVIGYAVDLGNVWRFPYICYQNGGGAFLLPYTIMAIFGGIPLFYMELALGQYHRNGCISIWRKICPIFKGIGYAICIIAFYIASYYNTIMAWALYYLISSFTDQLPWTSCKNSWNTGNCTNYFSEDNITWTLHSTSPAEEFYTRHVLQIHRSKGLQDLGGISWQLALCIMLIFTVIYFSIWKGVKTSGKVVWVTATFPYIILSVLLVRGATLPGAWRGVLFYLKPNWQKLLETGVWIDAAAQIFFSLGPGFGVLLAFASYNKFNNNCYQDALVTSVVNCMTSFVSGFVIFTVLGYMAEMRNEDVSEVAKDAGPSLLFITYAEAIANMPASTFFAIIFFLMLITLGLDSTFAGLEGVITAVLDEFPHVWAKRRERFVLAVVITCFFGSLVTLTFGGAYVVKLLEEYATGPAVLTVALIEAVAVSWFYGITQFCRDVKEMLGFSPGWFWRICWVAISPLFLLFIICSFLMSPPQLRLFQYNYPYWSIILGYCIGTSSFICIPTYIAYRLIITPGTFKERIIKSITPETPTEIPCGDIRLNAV

pIC50 [1]	pIC50 [2]	pIC50 [3]	inhibition [4]	Compound	Activity [5]	Activity [6]	pIC50 [7]
4.59	5.40	6.43		COc1cc(-c2cn(C3CCc4ccccc4N(CC4CC4)C3=O)nn2)ccc1-n1cnc(C)c1 (stereo not drawn)			
4.38	6.03	6.82	inactive	COc1cc(-c2cn(C3CCc4ncccc4N(CC(F)(F)F)C3=O)nn2)ccc1-n1cnc(C)c1 (stereo not drawn)	Active	Active	< 4.30
< 4.30	5.33	6.06		COc1cc(-c2cn(C3CCc4ccccc4N(Cc4cccnc4)C3=O)nn2)ccc1-n1cnc(C)c1 (racemic)			
< 4.30	5.13	5.90		COc1cc(-c2cn(C3CCc4ccccc4N(CC4(C)COC4)C3=O)nn2)ccc1-n1cnc(C)c1 (racemic)			
< 4.30	7.30	8.00		COc1cc(-c2cn(C3CCc4c(ccc(Br)c4F)N(CC(F)(F)F)C3=O)nn2)ccc1-n1cnc(C)c1 (stereo not drawn)	Active	Active	6.28
< 4.30	5.51	6.37		COc1cc(-c2cn(C3CCc4ccccc4N(C)C3=O)nn2)ccc1-n1cnc(C)c1 (stereo not drawn)			
4.55	6.62	7.22		COc1cc(-c2cn(C3CSc4ccccc4N(CC(F)(F)F)C3=O)nn2)ccc1-n1cnc(C)c1 (stereo not drawn)	Active	Active	5.32
< 4.30	7.15	7.52		COc1cc(-c2cn(C3CCc4c(ccc5ccccc45)N(CC(F)(F)F)C3=O)nn2)ccc1-n1cnc(C)c1 (stereo not drawn)	Active	Active	
< 4.30	5.17	5.92		COc1cc(-c2cn(C3CCc4ccccc4N(Cc4ccncc4)C3=O)nn2)ccc1-n1cnc(C)c1 (racemic)			
< 4.30	5.70	6.62		COc1cc(-c2cn(C3CCc4ccccc4N(Cc4ccccc4)C3=O)nn2)ccc1-n1cnc(C)c1 (racemic)			
< 4.30	6.33	7.15	inactive	COc1cc(-c2cn(C3CC[C@@H]4CCCC[C@H]4N(Cc4ccccc4)C3=O)nn2)ccc1-n1cnc(C)c1 (stereo partly drawn)	Active	Active	
